Experimental data reported in patent US20060194811A1, “Pyrimidine derivatives” (KYOWA HAKKO KOGYO CO., LTD., priority 2003, published 2006).
Where two headings read alike, the source gives them in different places.

How the values were obtained:
[1] = molecular target: T1, TARC binding to Hut78 cells (Homo sapiens, UniProt P51679); experiment: Inhibitory activity on binding of [125I]-TARC to Hut78 cells; conditions: for inhibition at 1 µM: read-out: The Binding Inhibitory Rates at 1 μmol/L (%)
T1 construct: host or cells: Hut78 cells (whole cells)
T1 sequence (P51679 1-360): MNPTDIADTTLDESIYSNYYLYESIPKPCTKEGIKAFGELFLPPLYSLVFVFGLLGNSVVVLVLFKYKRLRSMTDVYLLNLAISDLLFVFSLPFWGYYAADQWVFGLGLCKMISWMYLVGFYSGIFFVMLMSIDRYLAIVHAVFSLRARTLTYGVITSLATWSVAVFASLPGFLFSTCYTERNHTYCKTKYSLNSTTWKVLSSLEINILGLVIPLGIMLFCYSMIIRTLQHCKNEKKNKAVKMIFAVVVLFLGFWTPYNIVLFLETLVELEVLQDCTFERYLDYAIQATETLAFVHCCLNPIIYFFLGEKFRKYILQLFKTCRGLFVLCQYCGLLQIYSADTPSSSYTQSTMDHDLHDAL
Procedure: Inhibitory Activity on Binding of [^125I]-TARC to Hut78 Cells
The RPMI-1640 medium (Sigma-Aldrich Japan) containing 20 mmol/L HEPES [4-(2-hydroxyethyl)-1-piperazinylethanesulfonic acid; HEPES, Nacalai Tesque, Inc.] and 0.1 w/v % bovine serum albumin (SEIKAGAKU CORPORATION) was adjusted to pH 7.0 with sodium hydrogencarbonate (Wako Pure Chemical Industries, Ltd.) to yield a binding/wash buffer. In a 96-well round-bottomed plate (Corning Costar Corporation) were placed 60 μL of a suspension of Hut78 cells (ATCC No. TIB-161) (3×10^5 cells) in the binding/wash buffer, 20 μL of a solution of a test compound and 20 μL of a solution of 810 Bq of [^125I]-TARC (Amersham Biosciences K.K.) diluted with the binding/wash buffer up to the total aliquot of 100 μL, followed by reaction at room temperature for two hours. The solution of the test compound had been prepared by dissolving the test compound in dimethyl sulfoxide (Nacalai Tesque, Inc.) to a concentration of 10 mmol/L, and diluting the solution with the binding/wash buffer to a series of concentrations. The nonspecific binding was determined by a binding assay in the presence of a sufficient amount of unlabeled TARC. The total binding was defined as a binding in the case where dimethyl sulfoxide (Nacalai Tesque, Inc.) was added, instead of the test compound, in the same concentration (0.1 v/v %). After binding [^125I]-TARC to Hut78 cells, 50 μL of a polyethyleneimine solution (Nacalai Tesque, Inc.) diluted to 0.3 w/v % with the binding/wash buffer was added each of wells of a glass filter (Unifilter GF/B96, Packard BioScience Company), was rapidly filtrated using Filtermate 196 (Packard BioScience Company) and washed with the binding/wash buffer at 4° C. to thereby separate the radioactive ligand which is not bound to the cells. Microscinti 20 (Packard BioScience Company) was placed in each well at 50 μL/well, and the radioactivity on the glass filter was determined using Topcount NXT™ (Packard BioScience Company). The binding inhibitory rates (%) of the test compounds were determined by calculation according to the following equation: [formula] Total binding: [^125I]-TARC binding radioactivity without addition of the test compound Binding upon addition of test compound: [^125I]-TARC binding radioactivity at respective concentration upon addition of test compound
Nonspecific binding: [^125I]-TARC binding radioactivity upon addition of unlabeled TARC

[2] = test system: CD4-positive T cells and eosinophils in the bronchoalveolar lavage fluid; experiment: Inhibitory activities on antigen-induced cellular infiltration (ovalbumin-sensitized mice, bronchoalveolar lavage fluid); format: in vivo, BALB/c mice
Procedure: Inhibitory Activities on Antigen-Induced Cellular Infiltration and Cytokine Production
BALB/c mice were sensitized by intraperitoneally administrating 50 μg of ovalbumin (Sigma-Aldrich Japan) and 1 mg of aluminum hydroxide (Wako Pure Chemical Industries, Ltd.) and further sensitized in the same manner on the 7th day from the first sensitization (0 day). From on the 23rd day, the mice were allowed to inhale a 1% ovalbumin physiological saline solution [prepared by dissolving ovalbumin in physiological saline (Otsuka Pharmaceutical Co., Ltd.) to a concentration 1%] using Supersonic Nebulizer NE-U 12 (OMRON Corporation) for 30 minutes once per 2 days (antigen nebulization). DMSO (Kanto Kagaku), Tween 80 (Wako Pure Chemical Industries), and 10 mmol/L acetic acid buffer containing 0.9% sodium chloride were mixed at a ratio of 5 to 5 to 90, whereby a liquid (an administration solvent) was prepared. Each test compound was dissolved in the administration solvent, whereby a solution for subcutaneous administration was prepared. The mice were grouped into test compound-administered groups and a control group. The test compound was subcutaneously administered to the mice of each of the test compound-administered groups at a dose of 30 mg/kg and the administration solvent was subcutaneously administered to the mice of the control group 30 minutes prior to the fourth antigen nebulization and after 4 hours from the fourth antigen nebulization. 8 hours after the fourth antigen nebulization, the bronchoalveolar lavage of each mouse was performed to obtain a bronchoalveolar lavage fluid. The number of CD4-positive T cells and eosinophils in the bronchoalveolar lavage fluid were counted. 10 mice were subjected to the each group in the test.

[3] = test compound 1 μmol/L, [125I]-TARC, Hut78 cells, room temperature, two hours

| Molecule | The Binding Inhibitory Rates at 1 μmol/L (%) [1, 3] [%] | inhibition at 1 µM [1] [%] | inhibition at 1 µM [1, 3] [%] | further results |
| --- | --- | --- | --- | --- |
| 4-(2,4-difluorobenzylamino)-5-(2,4-difluorophenyl)-2-[4-(1-methylpiperidinio)piperidino]pyrimidine iodide [Compound 72] | 96 | – | – | – |
| CC1CCCN(C2CCN(c3ncc(-c4ccc(F)cc4F)c(NCc4ccc(F)cc4F)n3)CC2)C1 (centres unmarked) [Compound 1, 4-(2,4-difluorobenzylamino)-5-(2,4-difluorophenyl)-2-[4-(3-methylpiperidino)piperidino]pyrimidine] | – | 91 | – | – |
| CC1CCCCN1C1CCN(c2ncc(-c3ccc(F)cc3F)c(NCc3ccc(F)cc3F)n2)CC1 (centres unmarked) [Compound 3, 4-(2,4-difluorobenzylamino)-5-(2,4-difluorophenyl)-2-[4-(2-methylpiperidino)piperidino]pyrimidine] | – | 93 | – | – |
| NC(=O)C1CCCN(C2CCN(c3ncc(-c4ccc(F)cc4F)c(NCc4ccc(F)cc4F)n3)CC2)C1 (centres unmarked) [Compound 8, 2-[4-(3-carbamoylpiperidino)piperidino]-4-(2,4-difluorobenzylamino)-5-(2,4-difluorophenyl)pyrimidine] | – | – | 92 | number of eosinophils in a bronchoalveolar lavage fluid obtained from each mouse ([2]; 30 mg/kg subcutaneously 30 minutes prior to and 4 hours after fourth antigen nebulization, lavage 8 hours after, mean±standard error, control (1.5±0.1)×10^5): (0.6±0.1)×10^5; number of CD4-positive T cells in a bronchoalveolar lavage fluid obtained from each mouse ([2]; 30 mg/kg subcutaneously 30 minutes prior to and 4 hours after fourth antigen nebulization, lavage 8 hours after, mean±standard error, control (1.9±0.2)×10^4): (0.6±0.1)×10^4; number of CD4-positive T cells less than that of the control group ([2]; 30 mg/kg subcutaneously, bronchoalveolar lavage fluid, P<0.0001, Aspin-Welch test): 68%; number of eosinophils less than that of the control group ([2]; 30 mg/kg subcutaneously, bronchoalveolar lavage fluid, P<0.0001, Student's test): 57% |
| CC1CCCN(C2CCN(c3ncc(-c4ccc(F)cc4F)c(NCc4c(F)cccc4F)n3)CC2)C1 (centres unmarked) [Compound 15, 4-(2,6-difluorobenzylamino)-5-(2,4-difluorophenyl)-2-[4-(3-methylpiperidino)piperidino]pyrimidine] | – | 90 | – | – |
| Fc1ccc(-c2cnc(N3CCC(N4CCCCC4)CC3)nc2NCc2c(F)cccc2F)c(F)c1 [Compound 40, 4-(2,6-difluorobenzylamino)-5-(2,4-difluorophenyl)-2-(4-piperidinopiperidino)pyrimidine] | – | – | 89 | – |
| Fc1ccc(-c2cnc(N3CCC(N4CCCCC4)CC3)nc2NCc2ccc(Cl)cc2F)c(F)c1 [Compound 58, 4-(4-chloro-2-fluorobenzylamino)-5-(2,4-difluorophenyl)-2-(4-piperidinopiperidino)pyrimidine] | – | – | 81 | – |
| Fc1ccc(-c2cnc(N3CCC(N4CCCCC4)CC3)nc2NCc2c(F)cccc2Cl)c(F)c1 [Compound 61, 4-(2-chloro-6-fluorobenzylamino)-5-(2,4-difluorophenyl)-2-(4-piperidinopiperidino)pyrimidine] | – | – | 82 | – |
| CC[N+]1(C2CCN(c3ncc(-c4ccc(F)cc4F)c(NCc4ccc(F)cc4F)n3)CC2)CCCCC1.[I-] [Compound 73, 4-(2,4-difluorobenzylamino)-5-(2,4-difluorophenyl)-2-[4-(1-ethylpiperidinio)piperidino]pyrimidine iodide] | 99 | – | – | – |
| C=CC[N+]1(C2CCN(c3ncc(-c4ccc(F)cc4F)c(NCc4ccc(F)cc4F)n3)CC2)CCCCC1.[Br-] [Compound 75, 2-[4-(1-allylpiperidinio)piperidino]-4-(2,4-difluorobenzylamino)-5-(2,4-difluorophenyl)pyrimidine bromide] | 97 | – | – | – |
